Measurements from patent US7901906B2, “Targeting of MKRN1 for identifying cancer treatment agents” (University of Central Florida Research Foundation, Inc., priority 2006, dated 2011).
Non-standard residues stand in square brackets, D forms with d. Residues, ends and D or L forms follow the SMILES beside them. *: point of attachment. Nle = CCCC[C@H](N)C(=O)O; Cbz = O=C(OCc1ccccc1)*

Columns and labels:
[1] = system: hTERT; test: Ubiquitination of hTERT in H1299 cells (immunoprecipitation, anti-HA immunoblot); type: cell-based, human
Protocol: FIG. 2. hTERT is ubiquitinated prior to proteasome-mediated degradation. (A) H1299 cells were co-transfected with Flag-hTERT and HA-ubiquitin. Cells were either untreated or treated for 2 hours with 10 μg/ml ALLnN or 0.1 μM GA, or a combination of the two as specified above each lane. Immunoprecipitation was performed with anti-Flag antibody before probing with anti-hTERT or anti-HA antibodies as indicated besides each blot. Molecular weight markers are shown in kilodaltons. (B) H1299 cells co-transfected with Flag-hTERT and HA-ubiquitin were treated for 1 hour with the GA concentration indicated in the presence of 10 μM MG132. Immunoprecipitation was performed with anti-Flag antibody followed by immunoblotting using an anti-HA antibody probe. (C) H1299 cells co-transfected with Flag-hTERT and HA-ubiquitin were either untreated or treated for 2 hours with 10 μg/ml ALLnN as specified above each lane. Proteins were immunoprecipated with anti-Flag antibody followed by immunoblotting using an anti-HA antibody probe.
(§1) FIG. 4. MKRN1 functions as an E3 ubiquitin-ligase for hTERT in vitro and in vivo. (A) HA-tagged hTERT (residues 946-1132) was incubated MKRN1 or mutants in the presence of E1, E2, His6-ubiquitin (6×His tag disclosed as SEQ ID NO: 7). Samples were resolved by 6% SDS-PAGE and analyzed by immunoblotting with an anti-HA antibody probe. (B) H1299 cells were co-transfected with Flag-hTERT, HA-ubiquitin, MKRN1-V5, and together with either MKRN1^H307E-V5 or MKRN1^Δ^C-V5 as specified. Cells were untreated or treated with 10 μM MG132 for 2 hours. Anti-Flag immunoprecipitates and cell lysates were analyzed by immunoblotting with anti-HA antibody and anti-V5 antibody probes, respectively. (C) H1299 cells co-transfected with Flag-hTERT and HA-ubiquitin, and together with or without MKRN1-V5 as indicated were treated with 10 μM MG132 for the indicated times. Anti-Flag immunoprecipitates and cell lysates were analyzed by immunoblotting with anti-HA antibody and anti-V5 antibody probes, respectively.
H1299 cells were transiently transfected with the expression vectors indicated in the figure legends using TransFast transfection reagent (Promega, Madison, Wis.) according to the manufacturer's instructions. Cells were lysed with buffer containing 0.5% NP-40, 50 mM Tris-HCl (pH 7.5), 150 mM NaCl, 2 mM phenyl methylsulphonyl fluoride. After centrifugation at 12,000 rpm for 30 min, the supernatants were immunoprecipitated for 2 hours with anti-Flag (Sigma, St. Louis, Mo.) or anti-HA (Santa Cruz biotechnology, Santa Cruz, Calif.) antibodies and then incubated with Sepharose beads conjugated to Protein G (Amersham Biosciences Inc., Piscataway, N.J.). When ubiquitin conjugates of hTERT were detected, immunoprecipitation was performed with lysis buffer containing 0.1% SDS to dissociate its interacting proteins. Immunoblot analyses were performed using anti-hTERT (Santa Cruz biotechnology, Santa Cruz, Calif.), anti-V5 (Invitrogen, Carlsbad, Calif.), anti-HA, and anti-Flag antibodies.
GA-mediated protein degradation by the proteasome depends on conjugation of ubiquitin to the Hsp90 client protein (Isaacs et al. 2002; Citri et al. 2002). To determine whether hTERT is ubiquitinated in vivo prior to its degradation, H1299 cells co-transfected with Flag-tagged hTERT and HA-tagged ubiquitin constructs were treated with GA, ALLnN (a general proteasome inhibitor) or both. The immunoprecipitated products were evaluated by immunoblotting with selected probes as described in FIG. 2. […]

[2] = system: MKRN1; test: Levels of ectopically expressed MKRN1 by anti-V5 immunoblotting; type: cell-based, human
Protocol: FIG. 3. MKRN1 interacts with hTERT. (A) Analysis of the physical interaction between hTERT and MKRN1 using the yeast two-hybrid assay. Five domains of hTERT were analyzed for binding to MKRN1. TRF1 bait was used as a negative control. Blue signal on the SG-HWU/X plate indicates activation of the reporter gene, LacZ. S, synthetic; G, galactose; H, histidine (−); W, tryptophan (−); U, uracil (−); X, X-gal. (B) Schematic diagram of MKRN1 domains. Amino acid sequences (SEQ ID NOS 3-5, respectively in order of appearance) surrounding the RING finger domain in MKRN1 and mutants used in this study. Cysteines and a histidine in the RING finger domain are shown in red. Mutated residue in MKRN1^H307E is shown in blue. (C) H1299 cells co-transfected with hTERT-HA and MKRN1-V5 were either untreated or treated for 2 hours with 10 μg/ml ALLnN. Anti-HA immunoprecipitates were analyzed by immunoblotting using an anti-V5 antibody probe. […] (D) H1299 cells co-transfected with Flag-hTERT and MKRN1-V5 were either untreated or treated for 2 hours with 10 μM MG132. Anti-Flag immunoprecipitates were analyzed by immunoblotting using an anti-V5 antibody probe. […] Flag-hTERT was visualized with an anti-Flag antibody probe.
as §1
FIG. 5. Overexpression of MKRN1 decreases telomerase activity and telomere length. (A) HT1080 cells were stably transfected with MKRN1-V5 or an empty vector. The cells were untreated or treated for 2 hours with 10 μM MG132. Cell lysates were analyzed by immunoblotting with anti-V5 antibody probe. (B) Stable HT1080 cell lines (MKRN1 and vector) were harvested at 45 PD, and telomerase activities were measured with different amounts of proteins using the TRAP assay. The lane labeled LB corresponds to the negative control (lysis buffer only). ITAS represents the internal telomerase assay standard. (C) Cell lysates from stable HT1080 cell lines were analyzed by immunoprecipitation with anti-hTERT antibody followed by immunoblotting using same antibody probe. (D) Representative results of RT-PCR analysis for the expression of MKRN1, hTERT, and hTR in stable HT1080 cell lines. RT-PCR products from each sample were normalized to glyceraldehyde-3-phosphate dehydrogenase (GAPDH) signal. (E) Stable HT1080 cell lines were harvested at 45 PD, and genomic DNA was digested with RsaI and HinfI, followed by Southern blotting using a telomere repeat probe.
H1299 cells were transiently transfected with the expression vectors indicated in the figure legends using TransFast transfection reagent (Promega, Madison, Wis.) according to the manufacturer's instructions. Cells were lysed with buffer containing 0.5% NP-40, 50 mM Tris-HCl (pH 7.5), 150 mM NaCl, 2 mM phenyl methylsulphonyl fluoride. […]

CCCC[C@@H](C=O)NC(=O)[C@H](CC(C)C)NC(=O)[C@H](CC(C)C)NC(C)=O [ALLnN] (Ac-Leu-Leu-[Nle]-aldehyde)
polyubiquitinated hTERT forms in absence of GA ([1]; H1299, 10 μg/ml ALLnN, 2 hours, FIG. 2C): significantly elevated | ubiquitinated hTERT ([1]; H1299 Flag-hTERT and HA-ubiquitin, 10 μg/ml ALLnN, 2 hours, FIG. 2A): dramatically elevated | MKRN1 species in cell lysates ([2]; H1299 co-transfected with hTERT-HA and MKRN1-V5, 10 μg/ml ALLnN, 2 hours): significant increase

CC(C)C[C@@H](C=O)NC(=O)[C@H](CC(C)C)NC(=O)[C@H](CC(C)C)NC(=O)OCc1ccccc1 [MG132] (Cbz-Leu-Leu-Leu-aldehyde)
hTERT-ubiquitin conjugates without MKRN1 co-expression ([1]; H1299 Flag-hTERT plus HA-ubiquitin, 10 μM MG132, 45-60 minutes): low levels were detected | ubiquitin conjugates of hTERT ([1]; H1299 co-transfected with Flag-hTERT, HA-ubiquitin, MKRN1-V5, 10 μM MG132, 2 hours): easily detected | MKRN1 expression ([2]; H1299, MKRN1-V5, 10 μM MG132, 2 hours): clearly elevated | unmodified and polyubiquitinated MKRN1 species over time ([2]; H1299, MKRN1-V5, 10 μM MG132, indicated times): increased in a time-dependent manner | amount of MKRN1^ΔC ([2]; H1299, MKRN1^ΔC-V5, 10 μM MG132, 2 hours): no effect | MKRN1^H307E expression level, MG132 treatment versus absence ([2]; H1299 cotransfected with MKRN1 and MKRN1^H307E, 10 μM MG132): ~2 fold | MKRN1 level in stable HT1080 cells ([2]; HT1080 stably expressing MKRN1-V5, 10 μM MG132, 2 hours): substantial increase
